The target in experiment [1] is T1, Peroxisome proliferator-activated receptor delta (Homo sapiens, UniProt Q03181).
T1 sequence (Q03181 whole entry): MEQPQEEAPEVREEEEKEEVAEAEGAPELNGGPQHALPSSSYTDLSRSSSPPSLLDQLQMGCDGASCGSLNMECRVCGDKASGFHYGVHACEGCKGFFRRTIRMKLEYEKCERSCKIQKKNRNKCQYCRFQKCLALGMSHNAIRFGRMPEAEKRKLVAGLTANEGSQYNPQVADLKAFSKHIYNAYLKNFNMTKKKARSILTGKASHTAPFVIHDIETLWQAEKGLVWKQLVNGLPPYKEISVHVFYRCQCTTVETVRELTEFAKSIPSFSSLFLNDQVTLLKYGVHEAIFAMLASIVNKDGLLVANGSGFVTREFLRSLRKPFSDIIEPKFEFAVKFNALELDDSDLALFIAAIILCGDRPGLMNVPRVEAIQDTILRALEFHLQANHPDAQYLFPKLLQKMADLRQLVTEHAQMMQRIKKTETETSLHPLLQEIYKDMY

Experiment [2] addresses T2, Peroxisome proliferator-activated receptor gamma (Homo sapiens, UniProt P37231).
T2 sequence (P37231 whole entry): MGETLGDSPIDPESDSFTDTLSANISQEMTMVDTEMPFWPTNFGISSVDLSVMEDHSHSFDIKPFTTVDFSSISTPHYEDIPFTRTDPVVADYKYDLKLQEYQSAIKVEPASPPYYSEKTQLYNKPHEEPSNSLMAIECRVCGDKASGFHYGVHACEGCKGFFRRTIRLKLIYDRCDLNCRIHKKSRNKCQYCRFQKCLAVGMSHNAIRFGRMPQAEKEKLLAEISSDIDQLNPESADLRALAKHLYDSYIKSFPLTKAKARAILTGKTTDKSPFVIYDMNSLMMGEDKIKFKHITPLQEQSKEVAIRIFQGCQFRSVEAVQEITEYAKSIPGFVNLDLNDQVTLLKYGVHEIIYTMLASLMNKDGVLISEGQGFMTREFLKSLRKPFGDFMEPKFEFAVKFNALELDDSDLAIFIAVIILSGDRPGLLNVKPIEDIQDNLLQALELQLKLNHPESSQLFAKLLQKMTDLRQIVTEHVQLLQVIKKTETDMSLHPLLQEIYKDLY
The experiment in a line: Agonist activity at human PPARgamma receptor expressed in HEK293 cells by GAL4 transactivation assay. The class given is functional, cell-based.

Experiment [3] addresses T3, Peroxisome proliferator-activated receptor alpha (Homo sapiens, UniProt Q07869).
T3 sequence (Q07869 whole entry): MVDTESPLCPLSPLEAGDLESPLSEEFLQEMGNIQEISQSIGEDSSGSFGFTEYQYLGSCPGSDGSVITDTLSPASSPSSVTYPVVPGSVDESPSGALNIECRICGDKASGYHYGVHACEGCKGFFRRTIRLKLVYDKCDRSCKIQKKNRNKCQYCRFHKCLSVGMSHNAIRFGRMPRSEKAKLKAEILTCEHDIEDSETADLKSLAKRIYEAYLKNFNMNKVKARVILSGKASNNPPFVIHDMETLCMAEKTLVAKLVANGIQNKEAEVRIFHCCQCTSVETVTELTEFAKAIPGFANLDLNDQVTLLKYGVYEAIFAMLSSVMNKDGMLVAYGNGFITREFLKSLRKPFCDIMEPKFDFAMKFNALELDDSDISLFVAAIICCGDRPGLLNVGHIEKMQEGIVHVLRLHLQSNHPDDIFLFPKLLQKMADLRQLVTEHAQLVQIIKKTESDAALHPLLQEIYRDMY
The experiment is described as follows: Agonist activity at human PPARalpha receptor expressed in HEK293 cells by GAL4 transactivation assay. The class given is functional, cell-based.

The molecule `Cc1ccc2nc(N(CCOc3ccc(CCC(=O)O)cc3)Cc3ccccc3)sc2c1` displayed a half-maximal effective concentration (EC50) in experiment [1] of 2610 nM.
For the molecule `O=C(O)CCc1ccc(OCCN(Cc2ccc(C(F)(F)F)cc2)c2nc3ccccc3s2)cc1`, the results for the EC50 in experiment [1], in experiment [2] and in experiment [3] were 940 nM, 3690 nM and 4460 nM, respectively.
In turn, `O=C(O)CCc1ccc(OCCN(Cc2cccs2)c2nc3ccccc3s2)cc1` yielded an EC50 in experiment [1] of 1740 nM.
For the molecule `CCc1cc(OCCN(Cc2ccccc2)c2nc3ccccc3s2)ccc1CCC(=O)O`, the response in experiment [1] was half-maximal at 2970 nM (EC50).
On the same count and under the same terms, with `O=C(O)CCc1ccc(OCCCN(Cc2ccccc2)c2nc3ccccc3s2)cc1` the figure was 2550 nM.
Consider `Cc1cc(OCCN(Cc2ccccc2)c2nc3ccccc3s2)ccc1CCC(=O)O`, for which the concentration for a half-maximal effect (EC50) in experiment [1] worked out at 1170 nM.
`Cc1cc(CCC(=O)O)ccc1OCCCN(Cc1cccs1)c1nc2ccc(Cl)cc2s1` returned an EC50 in experiment [1] of 390 nM.
Turning to `CC(C)(C)c1ccc(CN(CCOc2ccc(CCC(=O)O)cc2)c2nc3ccccc3s2)cc1`, the figures for the half-maximal effective concentration (EC50) in experiment [1] and in experiment [2] were 4880 nM and 6340 nM, respectively.
As for `O=C(O)CCc1ccc(OCCN(Cc2ccccc2)c2nc3ccc(Cl)cc3s2)cc1`, the EC50 in experiment [1] is 1360 nM.
The same measure, in the same setting: next, `O=C(O)CCc1ccc(OCCN(Cc2ccccc2)c2nc3ccccc3s2)cc1`: 2810 nM.

The record behind these values is ChEMBL document CHEMBL1140005, “Phenylpropanoic acid derivatives bearing a benzothiazole ring as PPARdelta-selective agonists” (Bioorg Med Chem Lett, 2007).
